Where “and” joins values, the source holds several entries; their conditions need not be identical. Equal entries are not always repeated.

Data set [1] relates to Vaccinia virus (IHD strain). The arrangement: species or system BALB/c mice. The conditions noted are these: mouse, in vivo.
The next data set deals with West Nile Virus (WNV). The experiment in a line: West Nile virus s.c. infection model. Type of data set: in vivo, C57BL/6 mice.
The next data set concerns lung parenchyma. Nature of the data set: Lung histology (H&E) after i.t. administration. The conditions noted are these: 1 nmol i.t., 6 and 24 h post treatment.
A further data set concerns B220+ B cells. The experiment in a line: B cell numbers in lymph nodes after pulmonary administration (flow cytometry). The conditions noted are these: 1 nmol, 7 days post treatment. For orientation: A flow cytometer gives signals particle by particle.
A short description of the next data set: Particle size in PBS. Format: physicochemical.
The subject of data set [2] is influenza A/California/04/2009 (H1N1) virus. The arrangement: species or system BALB/c mice. The settings on record: mouse, in vivo.
Data set [3] concerns neutrophils in BAL fluids. Nature of the data set: BAL cell counts (Guava cytometer, Wright-Giemsa differential) after i.t. administration. Type of data set: in vivo, C57BL/6 mice.
Data set [4] is described as follows: Body weight monitoring / maximum tolerated dose after pulmonary administration.
Data set [5] concerns Venezuelan equine encephalitis virus (Trinidad Donkey, NR-332). Also on record: species or system BALB/c mice. The conditions noted are these: mouse, in vivo, sc.
In data set [6] the test system is cytokines and chemokines in BAL fluids and sera. Nature of the data set: Luminex bead assay of cytokines and chemokines in BAL fluids and sera after pulmonary administration.
A further data set has as its system CD11c+ dendritic cells. Nature of the data set: In vivo CFSE labeling of dendritic cells, migration to mediastinal lymph nodes (flow cytometry). The conditions noted are these: 1 nmol i.t., 24 h after drug administration. Also on record: species or system C57BL/6 mice.
[7] abbreviates: 1 nmol i.t., 6 h post-treatment, vs vehicle.
The mark [8] stands for this setting: 24 h after pulmonary (i.n.) administration, up to a 4 nmol dose.

Regarding `Nc1ccn(C[C@@H](CO)OCP(=O)(O)O)c(=O)n1` [Cidofovir, reference compound], in data set [1], the Survivors/Total is 10/10, the “effects on body weight” value is on record as “superior to treatments with 1V270 that were started on the same day” and the “mice protected from death” value is listed as 100%.
Take `CCCCCCCC/C=C\CCCCCCCC(=O)OCC(COP(=O)(O)OCCNC(=O)c1ccc(Cn2c(=O)[nH]c3c(N)nc(OCCOC)nc32)cc1)OC(=O)CCCCCCC/C=C\CCCCCCCC` (stereo not shown) [1V270, 2-(4-{[6-Amino-2-(2-methoxyethoxy)-8-oxo-7H-purin-9(8H)-yl]methyl}benzamido)ethyl 2,3-Bis(oleoyloxy)propyl Phosphate]: the “survival compared to placebo-treated mice” value with West Nile Virus (WNV) (1 nmol/mouse i.n. at days -3 and -1, WNV s.c. day 0) was “not significant”. Further, the “survival compared to placebo-treated mice” value with West Nile Virus (WNV) (1 nmol/mouse i.n. on day -1, WNV s.c. day 0 (P≦0.05)) is listed as “statistically improved”. For the same compound, in [1], the “Mean Day of Death ± SD” value was 7.2 ± 0.6 days and 8.4 ± 0.5 days and 9.0 days and 8.0 days and 7.3 ± 0.8 days; the Survivors/Total was 0/10 and 10/10*** and 5/10** and 9/10*** and 8/10*** and 3/10*; the “body weights during the infection” value is given as “increased over the first three days before declining”; the “mice protected from death” value is recorded as 90-100%. For the same compound, the “preserving body weight, rank among treatments” value in data set [1] is reported as “best effect in preserving body weight”. Also, the “inflammatory cell infiltration into the lung parenchyma” value with lung parenchyma was “did not show inflammatory cell infiltration into the lung parenchyma”. In addition, in the data set with B220+ B cells, the “B cell number in the cervical, mesenteric and inguinal nodes” value is reported as “did not significantly increase”; the “B cell number in the draining mediastinal lymph nodes” value is listed as “did not significantly increase”. Further, the particle size in the data set “Particle size in PBS” (dispersed in 50 μL PBS) is reported as 100-150 nm. Further, the “particle size, average” value in “Particle size in PBS” (in PBS, regardless of concentration) is “about 110 nm”. Moreover, the “mice protected from lethal H1N1 pulmonary influenza infection” value in data set [2] came out at 100%. Besides, in data set [3] (1 nmol i.t., 24 h, Myd88-/- or Tlr7-/- mice), the “cell infiltration and neutrophil recruitment to BAL fluids in MyD88 or TLR7 null mice” value is “diminished”. Moreover, in data set [3] (1 nmol i.t., 24 h after treatment, also elevated in vehicle-treated mice), the “mononuclear cells in BAL fluids” value is reported as “slightly elevated”. For the same compound, the “neutrophil population in BAL fluids” value in data set [3] (1 nmol i.t., 24 h and 48 h after treatment) is “significant increase”. For the same compound, the “total cell numbers in the BAL fluids” value in [3] (1 nmol i.t., monitored for 72 h) was “increased over 48 h and declined to near baseline levels 72 h post pulmonary administration”. Moreover, in data set [3] (24 h post treatment, i.t.), the “neutrophil influx dose response” value is given as “dose responsive between 0.1 to 10 nmol”. In data set [4] (75 nmol i.t., Tlr7-/- mice), the “weight loss in TLR7 null mice” value is given as “did not lose weight”. The “MTD relative to the effective dose” value in data set [4] (MTD 75 nmol/animal vs effective dose 1 nmol) is listed as 75 times. Besides, the “weight loss compared to vehicle treated mice” value in [4] (effective dose (1 nmoles), i.t.) is “did not cause significant weight loss”. Besides, in [4] (pulmonary route, mice), the effective dose stood at 1 nmol and the “maximum tolerated dose (MTD)” value stood at 75 nmol/animal. Also, the “mice protected from encephalitis” value in data set [5] is listed as “Eighty”. In addition, in data set [6] (setting [7]), the “IL-6 in BAL fluids” value is “significantly increased”, the “KC in BAL fluids” value is reported as “significantly increased” and the “MCP-1 in BAL fluids” value is listed as “significantly increased”. The “IP-10 induction in BAL fluids (surrogate marker of type 1 IFN)” value in [6] (1 nmol i.t., monitored up to 72 h) is “peaked at 24 h and declined to baseline levels 72 h post treatment”. Further, in data set [6] (setting [8]), the IL-6 in sera result is “minimal insignificant increase” and the TNFα in sera entry is on record as “minimal insignificant increase”. The “CD11c+ DC migration to the mediastinal lymph nodes” value in the data set on CD11c+ dendritic cells is reported as “enhanced”.

The values above are taken from patent US20160199499A1, “USES OF PH[…] SYNTHETIC TLR7 AGONISTS” (priority 2013, published 2016).
